Reference: patent publication EP4585216A1, “HETEROCYCLIC COMPOUNDS FOR THE TREATMENT OF FATTY LIVER DISEASE” (ScandiEdge Therapeutics AB, priority 2024, dated 2025)
Where “and” joins values, the source holds several entries; their conditions need not be identical. Equal entries are not always repeated. Entries after “also recorded” stand apart in the source; their conditions may differ.

What was measured:
[1] = system: pyruvate kinase (PK); test: Pyruvate kinase activity in HepG2 WT protein lysate; type: biochemical; conditions: 10 µM
Protocol: (§1) HepG2 WT and HepG2 KO cells were lysed, and protein lysate was prepared with CelLytic M (C2978, Sigma-Aldrich) lysis buffer. Protein lysate was treated with 10 µM of the drugs and the pyruvate kinase activity on protein lysate was measured using Pyruvate Kinase Assay Kit (ab83432, abeam) following manufacturer's instruction. 2×10^4 HepG2 WT cells and 1×10^5 HepG2 KO cells were seeded into a 96-well plate for measuring pyruvate kinase activity in the cells. The cells were treated with 10-20µM of drugs for 4h and washed with 250µl PBS. Cells were lysed with 50 µl PK assay buffer (ab83432, abcam) and start reaction and kinetic O.D measurement was performed on 50µl PK assay buffer containing the assay component (ab83432, abcam). O.D values were measured with microplate reader (Hidex Sense Beta Plus) at 570nm wavelength. DMSO was used as control.
(§2) The effect of the target compounds was studied on liver cell line HepG2. HepG2 expresses two different pyruvate kinases (PK), pyruvate kinase muscle (PKM2) and pyruvate kinase liver (PKL). While most cells express PKM, liver cells further express PKL. […] In addition to HepG2 KO cell, HepG2 wild-type (HepG2 WT) cells were also used.

[2] = system: HepG2 cells; test: MTT assay (cell viability) in DNL steatosis model; type: cell-based
Protocol: (§3) HepG2 wild type cells were purchased from genome engineering company Synthego. Cells were maintained with growth media RPMI 1640 (R2405, Sigma-Aldrich) and supplemented with 10 % fetal bovine serum (FBS, F7524, Sigma-Aldrich), 1 % penicillin-streptomycin (P/S media, P4333, Sigma-Aldrich). Steatosis induction media was prepared as DMEM high glucose (D0819, Sigma-Aldrich) with 10% FBS, 1% P/S media supplemented with 10µg/ml insulin (I9278, Sigma-Aldrich), and 10µM T0901317 (T2320, Sigma-Aldrich) for one week. HepG2 cells were seeded 6×10^4 cells per well into a 96-well plate for TAG and MTT assay after steatosis and 1×10^6 cells per well into 6-well plate for western blot analysis after steatosis. HepG2 cells were incubated with steatosis induce media (SM) for one week by 3 day + 2 day + 2 day with total three times media exchange.
(§4) HepG2 cells were seeded at 6×10^4 cells per well into 96-well plate and induced steatosis for one week with designated concentration of small molecules (this will be referred to as a DNL steatosis model). After steatosis induction, cells were washed with 200 µl of PBS and triglyceride contents was measured by Triglyceride Assay Kit - Quantification (ab65336, Abeam) following manufacturer's instruction. Optical density (O.D) values were detected with microplate reader at 570 nm (Hidex Sense Beta Plus).
(§5) 5 mg/ml MTT (M2128, Sigma-Aldrich) solution in PBS (10 µL) was added to each well for MTT assay. After 1 hr, MTT solution and all media were removed from the wells. 100 µl of DMSO was added and mixed to dissolve the formazan crystals. Cell viability was analysed by measuring the absorbance of the dissolved formazan in a microplate reader at a wavelength of 570 nm with microplate reader (Hidex Sense Beta Plus). DMSO was used as control.

[3] = system: pyruvate kinase (PK); test: Pyruvate kinase activity in treated HepG2 WT cells; type: cell-based; conditions: 20 µM for 4 h
Protocol: as §1, §2

[4] = target: T1, pyruvate kinase liver (PKL) (Homo sapiens, UniProt P30613); test: Pyruvate kinase activity in treated HepG2 PKM2 CRISPR KO cells; type: cell-based; conditions: 20 µM for 4 h
T1 construct: endogenous in cells; host or cells: HepG2 PKM2 CRISPR KO (HepG2 KO) cells; lysate in CelLytic M or treated whole cells
T1 sequence (P30613 1-543 isoform P30613-2): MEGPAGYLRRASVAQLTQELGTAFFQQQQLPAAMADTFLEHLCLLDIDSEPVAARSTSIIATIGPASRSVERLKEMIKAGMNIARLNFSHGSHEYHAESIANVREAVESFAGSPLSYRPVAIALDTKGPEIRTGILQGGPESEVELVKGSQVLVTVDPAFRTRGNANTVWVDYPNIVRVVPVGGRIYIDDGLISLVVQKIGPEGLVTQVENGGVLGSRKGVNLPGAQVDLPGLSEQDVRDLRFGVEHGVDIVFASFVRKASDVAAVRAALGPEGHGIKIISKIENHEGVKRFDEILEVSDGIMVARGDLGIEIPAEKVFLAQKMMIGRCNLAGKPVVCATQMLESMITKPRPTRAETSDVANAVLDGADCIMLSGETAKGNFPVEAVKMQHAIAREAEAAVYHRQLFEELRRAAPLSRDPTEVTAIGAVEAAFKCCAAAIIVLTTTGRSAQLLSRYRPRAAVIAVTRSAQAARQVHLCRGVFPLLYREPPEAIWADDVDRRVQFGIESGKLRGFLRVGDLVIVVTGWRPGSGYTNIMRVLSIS
Protocol: as §1, §2

[5] = system: PKM2; test: Western blot of DNL steatosis model, PKM2 expression; type: cell-based; conditions: 5 µM
Protocol: as §3
(§6) After steatosis induction with designated concentration of compounds, whole cell lysate was prepared with CelLytic M (C2978, Sigma-Aldrich) buffer. SDS PAGE was performed on Mini-PROTEAN® TGX™ Precast Gels (Bio-Rad) and transferred using Trans-Blot® Turbo™ Transfer System (Bio-Rad). […] Protein band was detected with ImageQuantTMLAS 500 (29-0050-63, GE). […]

[6] = system: fatty acid synthase (FASN); test: Western blot of DNL steatosis model, FASN expression; type: cell-based; conditions: 5 µM
Protocol: as §3, §6

[7] = target: T2, PKM2 (Homo sapiens, UniProt P14618); test: Cellular thermal shift assay (Cetsa), PKM2; type: cell-based; conditions: HepG2 WT cells, 10 and 20 µM for 2 h, heat shock 60°C 5 min
T2 construct: host or cells: HepG2 wild-type cells
T2 sequence (P14618 2-531 limits assumed): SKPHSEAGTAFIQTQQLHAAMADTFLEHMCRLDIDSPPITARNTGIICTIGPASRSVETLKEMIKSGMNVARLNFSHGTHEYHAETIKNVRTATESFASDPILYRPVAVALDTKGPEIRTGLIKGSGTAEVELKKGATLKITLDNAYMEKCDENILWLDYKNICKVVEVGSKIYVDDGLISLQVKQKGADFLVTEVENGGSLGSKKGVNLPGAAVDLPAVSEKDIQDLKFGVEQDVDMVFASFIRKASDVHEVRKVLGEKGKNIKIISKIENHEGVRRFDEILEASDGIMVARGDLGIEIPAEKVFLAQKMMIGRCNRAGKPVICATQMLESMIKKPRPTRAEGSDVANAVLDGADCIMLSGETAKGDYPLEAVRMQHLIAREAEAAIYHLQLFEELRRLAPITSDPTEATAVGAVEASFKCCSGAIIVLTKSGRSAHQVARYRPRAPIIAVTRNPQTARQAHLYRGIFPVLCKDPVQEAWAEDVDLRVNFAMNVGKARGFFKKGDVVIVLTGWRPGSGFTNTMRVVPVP
Protocol: (§7) HepG2 WT cells were trypsinized and transferred into 1.5ml tube at a concentration of 500,000 cells per ml. The cells were treated with 10µM and 20µM SET-62 in an 1.5 ml tube and incubated for 2 h at 37°C in an CO2 incubator. The tubes were exposed to heat shock at 60°C for 5 min with a pre-heated heat block. After centrifugation of the heated cells at 13,000 rpm for 1 min, the cells were lysed with 50 µl of Native lysis Buffer (ab156035, abeam). Centrifugation was performed again to purify soluble proteins in the lysed solution and 9 µl of each group were analysed using western blot. DMSO was used as control.

[8] = target: T1, pyruvate kinase liver (PKL); test: Pyruvate kinase activity in HepG2 PKM2 CRISPR KO protein lysate; type: biochemical
Protocol: as §1, §2

[9] = system: PKL; test: Western blot of DNL steatosis model, PKL expression; type: cell-based; conditions: 5 µM
Protocol: as §3, §6

[10] = target: T3, PKL (Homo sapiens, UniProt P30613); test: Cellular thermal shift assay (Cetsa), PKL; type: cell-based; conditions: HepG2 WT cells, 10 and 20 µM for 2 h, heat shock 60°C 5 min
T3 construct: host or cells: HepG2 wild-type cells
T3 sequence (P30613 1-543 isoform P30613-2): as the sequence (P30613 1-543 isoform P30613-2) above
Protocol: as §7

[11] = system: HepG2 cells; test: TAG measurement in DNL steatosis model; type: cell-based
Protocol: as §3, §4, §5

## O=S1(=O)c2cc(O)c(O)cc2-c2ccc(C(F)(F)F)cc2N1Cc1ccccc1 [SET-62, 6-benzyl-2,'3-dihydroxy-8-(trifluoromethyl)-6H-dibenzo[c,e][1,2]thiazine 5,5-dioxide]
[1]; batches 4 and 5
  PK activity of HepG2 WT protein lysate (in words): highest inhibitory effect
[1]; compared to the control (DMSO)
  reduction in PK activity of HepG2 WT protein lysate: 59.9%
[2]; 5 µM for 1 week (batch 4)
  cell viability (in words): increased the cell viability
[2]; 10 µM for 1 week
  cell viability (MTT assay, in words): decreased cell viability; also recorded: strong toxicity
[2]; lower doses (5 µM, 2.5 µM, 1.25 µM, 0.625 µM), one week
  cell viability / toxicity (in words): did not exhibit any toxicity
[3]
  effect on PK activity in HepG2 WT cells (in words): slightly increased the PK activity
  increase in PK activity of HepG2 WT cells: 6% and 9.0%
[4]
  decrease in PK activity of HepG2 KO cells: 32.8% and 24.4%
  effect on PK activity in HepG2 KO cells (in words): decreased the PK activity
[5]
  expression of PKM2: slight increase
[6]
  FASN protein expression level: decreased
[7]
  increase of the solubility of PKM2: 12-18%
[8]; 10 µM, batches 4 and 5
  PK activity of HepG2 KO protein lysate (in words): highest inhibitory effect
[8]; compared to the control (DMSO), read-out: reduction in PK activity of HepG2 KO protein lysate
  inhibition at 10 µM: 57%
[9]
  PKL protein expression level: decreased
[10]
  decrease of the solubility of PKL: ~ 38%
[11]; 0.625 µM for one week
  TAG/MTT reduced to: 15.0%
[11]; 5 µM for one week
  TAG/MTT ratio reduced to: 49.4% and 61.3%
[11]; 10 µM for 1 week
  TAG content (in words): reduced TAG content
  TAG/MTT ratio: 92.9%
